The conditions of the experiment: pH 7.4 buffer, 37° C., released paliperidone plotted against time. Here is the method:
Sample was incubated at 37° C. At various time points aliquots were analyzed by UPLC and the amount of released paliperidone was plotted against time. […] Curve fitting software was used to determine half life time of drug release from the respective conjugate.

On to “4-arm PEG 20 kDa-octapaliperidone [Conjugate 5]”, for which the Drug release kinetics result was “first order kinetics”.

These data come from patent publication US20140296257A1, “High-Loading Water-Soluable Carrier-Linked Prodrugs” (Ascendis Pharma A/S, priority 2011, published 2014).
